Values of other authors in patent US20160082019A1, “Drug Combinations to Treat Cancer” (EXELIXIS, INC., priority 2013, published 2016).

Conditions: cabozantinib alone; in some cases normalized; independent of PSA declines

Question: Which “uptake on bone scans” value does the source give for `COc1cc2nccc(Oc3ccc(NC(=O)C4(C(=O)Nc5ccc(F)cc5)CC4)cc3)c2cc1OC` [Cabozantinib, N-(4-{[6,7-bis(methyloxy)quinolin-4-yl]oxy}phenyl)-N′-(4-fluorophenyl)cyclopropane-1,1-dicarboxamide] here?
Answer: decrease uptake on bone scans
